From patent US11919901B2 (Syndax Pharmaceuticals, Inc., priority 2021, dated 2024)

What follows are molecules tested on MV4-11 cells (assay: Cell proliferation assay MV4;11 (CellTiter-Glo, 72 hours)). Details: Homo sapiens; MV4;11 leukemia cell line, 72 hours; read-out: MV4; 11 IC50.
Type: cell-based
Summary of the method: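 Luminescent CellTiter-Glo readout after 72 h culture, 37 °C, 5% CO2, expressed relative to vehicle-treated wells, with maximal inhibition taken at the highest dose. MLL-rearranged MV4-11 leukemia cells; final compound range 0.632 to 2000 nM in eight steps.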

SMILES	IC50 [µM]
CCN(CC)S(=O)(=O)N[C@@H]1CC[C@@H](CN2CCC3(CC2)CN(c2ncncc2Oc2ccc(F)cc2C(=O)N(C(C)C)[C@@H]2CCOC2)C3)OC1 [Example 165, 2-((4-(7-(((2S,5R)-5-((N,N-Diethylsulfamoyl)amino)tetrahydro-2H-pyran-2-yl)methyl)-2,7-diazaspiro[3.5]nonan-2-yl)pyrimidin-5-yl)oxy)-5-fluoro-N-isopropyl-N-((R)-tetrahydrofuran-3-yl)benzamide]	< 0.1
CC(C)N(C(=O)c1cc(F)ccc1Oc1cncnc1N1CC2(CCN(C[C@@H]3CC[C@@H](NS(=O)(=O)N(C)C)CO3)CC2)C1)C1CC1 [Example 93, N-Cyclopropyl-2-((4-(7-(((2S,5R)-5-((N,N-dimethylsulfamoyl)amino)tetrahydro-2H-pyran-2-yl)methyl)-2,7-diazaspiro[3.5]nonan-2-yl)pyrimidin-5-yl)oxy)-5-fluoro-N-isopropylbenzamide]	< 0.1
CCS(=O)(=O)N[C@@H]1CC[C@@H](CN2CCC3(CC2)CN(c2ncncc2Oc2ccc(F)cc2C(=O)N(CC(F)F)C(C)C)C3)OC1 [Example 34, N-(2,2-Difluoroethyl)-2-((4-(7-(((2S,5R)-5-(ethylsulfonamido)tetrahydro-2H-pyran-2-yl)methyl)-2,7-diazaspiro[3.5]nonan-2-yl)pyrimidin-5-yl)oxy)-5-fluoro-N-isopropylbenzamide]	< 0.1
C[C@@H]1COC[C@@H](C)N1C(=O)c1cc(F)ccc1Oc1cncnc1N1CC2(CCN(C[C@@H]3CC[C@@H](NS(=O)(=O)C4COC4)CO3)CC2)C1 [Example 32, N-((3R,6S)-6-((2-(5-(2-((3R,5R)-3,5-Dimethylmorpholine-4-carbonyl)-4-fluorophenoxy)pyrimidin-4-yl)-2,7-diazaspiro[3.5]nonan-7-yl)methyl)tetrahydro-2H-pyran-3-yl)oxetane-3-sulfonamide]	0.1 to 1
CC(C)N(C(=O)c1cc(F)ccc1Oc1cncnc1N1CC2(CCN(C[C@@H]3CC[C@@H](NS(=O)(=O)N4CCOCC4)CO3)CC2)C1)C(C)C [Example 78, 5-Fluoro-N,N-diisopropyl-2-((4-(7-(((2S,5R)-5-(morpholine-4-sulfonamido)tetrahydro-2H-pyran-2-yl)methyl)-2,7-diazaspiro[3.5]nonan-2-yl)pyrimidin-5-yl)oxy)benzamide]	< 0.1
CCN(C(=O)c1cc(F)ccc1Oc1cncnc1N1CC2(CCN(C[C@@H]3CC[C@@H](NS(=O)(=O)c4ccccn4)CO3)CC2)C1)C(C)C [Example 58, N-ethyl-5-fluoro-N-isopropyl-2-((4-(7-(((2S,5R)-5-(pyridine-2-sulfonamido)tetrahydro-2H-pyran-2-yl)methyl)-2,7-diazaspiro[3.5]nonan-2-yl)pyrimidin-5-yl)oxy)benzamide]	< 0.1
CCS(=O)(=O)N[C@@H]1CC[C@@H](CN2CCC3(CC2)CN(c2ncncc2Oc2ccc(F)cc2C(=O)N2[C@H](C)COC[C@H]2C)C3)OC1 [Example 29, N-((3R,6S)-6-((2-(5-(2-((3R,5R)-3,5-Dimethylmorpholine-4-carbonyl)-4-fluorophenoxy)pyrimidin-4-yl)-2,7-diazaspiro[3.5]nonan-7-yl)methyl)tetrahydro-2H-pyran-3-yl)ethanesulfonamide]	< 0.1
CCN(C(=O)c1cc(F)ccc1Oc1cncnc1N1CC2(CCN(C[C@@H]3CC[C@@H](NS(=O)(=O)c4ccc(C)cc4)CO3)CC2)C1)C(C)C [Example 55, N-Ethyl-5-fluoro-N-isopropyl-2-((4-(7-(((2S,5R)-5-((4-methylphenyl)sulfonamido)tetrahydro-2H-pyran-2-yl)methyl)-2,7-diazaspiro[3.5]nonan-2-yl)pyrimidin-5-yl)oxy)benzamide]	< 0.1
CCS(=O)(=O)N[C@@H]1CC[C@@H](CN2CCC3(CC2)CN(c2ncncc2Oc2ccc(F)cc2C(=O)N(C(C)C)[C@@H]2C[C@@H]4CC[C@H]2O4)C3)OC1 [Example 251, N-((1R,2R,4S)-7-Oxabicyclo[2.2.1]heptan-2-yl)-2-((4-(7-(((2S,5R)-5-(ethylsulfonamido)tetrahydro-2H-pyran-2-yl)methyl)-2,7-diazaspiro[3.5]nonan-2-yl)pyrimidin-5-yl)oxy)-5-fluoro-N-isopropylbenzamide]	< 0.1
CC(C)N(C(=O)c1cc(F)ccc1Oc1cncnc1N1CC2(CCN(C[C@@H]3CC[C@@H](NS(=O)(=O)N4CCC4)CO3)CC2)C1)[C@H]1CCOC1 [Example 134, 2-((4-(7-(((2S,5R)-5-(Azetidine-1-sulfonamido)tetrahydro-2H-pyran-2-yl)methyl)-2,7-diazaspiro[3.5]nonan-2-yl)pyrimidin-5-yl)oxy)-5-fluoro-N-isopropyl-N-((S)-tetrahydrofuran-3-yl)benzamide]	< 0.1
CC(C)N(C(=O)c1cc(F)ccc1Oc1cncnc1N1CC2(CCN(C[C@@H]3CC[C@@H](NS(=O)(=O)C(C)C)CO3)CC2)C1)C1CC1 [Example 20, N-Cyclopropyl-5-fluoro-N-isopropyl-2-((4-(7-(((2S,5R)-5-((1-methylethyl)sulfonamido)tetrahydro-2H-pyran-2-yl)methyl)-2,7-diazaspiro[3.5]nonan-2-yl)pyrimidin-5-yl)oxy)benzamide]	< 0.1
C[C@@H]1COC[C@@H](C)N1C(=O)c1cc(F)ccc1Oc1cncnc1N1CC2(CCN(C[C@@H]3CC[C@@H](NS(=O)(=O)C4CC4)CO3)CC2)C1 [Example 31, N-((3R,6S)-6-((2-(5-(2-((3R,5R)-3,5-dimethylmorpholine-4-carbonyl)-4-fluorophenoxy)pyrimidin-4-yl)-2,7-diazaspiro[3.5]nonan-7-yl)methyl)tetrahydro-2H-pyran-3-yl)cyclopropanesulfonamide]	< 0.1
CCN(C(=O)c1cc(F)ccc1Oc1cncnc1N1CC2(CCN(C[C@@H]3CC[C@@H](NS(=O)(=O)C4CC4)CO3)CC2)C1)C(C)C [Example 4, 2-((4-(7-(((2S,5R)-5-(Cyclopropanesulfonamido)tetrahydro-2H-pyran-2-yl)methyl)-2,7-diazaspiro[3.5]nonan-2-yl)pyrimidin-5-yl)oxy)-N-ethyl-5-fluoro-N-isopropylbenzamide]	< 0.1
C[C@@H]1COC[C@@H](C)N1C(=O)c1cc(F)ccc1Oc1cncnc1N1CC2(CCN(C[C@@H]3CC[C@@H](NS(=O)(=O)c4ccn(C)n4)CO3)CC2)C1 [Example 127, N-((3R,6S)-6-((2-(5-(2-((3R,5R)-3,5-Dimethylmorpholine-4-carbonyl)-4-fluorophenoxy)pyrimidin-4-yl)-2,7-diazaspiro[3.5]nonan-7-yl)methyl)tetrahydro-2H-pyran-3-yl)-1-methyl-1H-pyrazole-3-sulfonamide]	< 0.1
CC(C)N(C(=O)c1cc(F)ccc1Oc1cncnc1N1CC2(CCN(C[C@@H]3CC[C@@H](NS(=O)(=O)C(C)C)CO3)CC2)C1)[C@@H]1CCOC1 [Example 132, 5-Fluoro-N-isopropyl-2-((4-(7-(((2S,5R)-5-((1-methylethyl)sulfonamido)tetrahydro-2H-pyran-2-yl)methyl)-2,7-diazaspiro[3.5]nonan-2-yl)pyrimidin-5-yl)oxy)-N-((R)-tetrahydrofuran-3-yl)benzamide]	< 0.1
C[C@@H]1COC[C@H](C)N1C(=O)c1cc(F)ccc1Oc1cncnc1N1CC2(CCN(C[C@@H]3CC[C@@H](NS(C)(=O)=O)CO3)CC2)C1 [Example 23, N-((3R,6S)-6-((2-(5-(2-((3S,5R)-3,5-Dimethylmorpholine-4-carbonyl)-4-fluorophenoxy)pyrimidin-4-yl)-2,7-diazaspiro[3.5]nonan-7-yl)methyl)tetrahydro-2H-pyran-3-yl)methanesulfonamide]	0.1 to 1
CCS(=O)(=O)N[C@@H]1CC[C@@H](CN2CCC3(CC2)CN(c2ncncc2Oc2ccc(F)cc2C(=O)N(C(C)C)C(C)C)C3)OC1 [Example 13, 2-((4-(7-(((2S,5R)-5-(Ethylsulfonamido)tetrahydro-2H-pyran-2-yl)methyl)-2,7-diazaspiro[3.5]nonan-2-yl)pyrimidin-5-yl)oxy)-5-fluoro-N,N-diisopropylbenzamide]	< 0.1
CCS(=O)(=O)N[C@@H]1CC[C@@H](CN2CCC3(CC2)CN(c2ncncc2Oc2ccc(F)cc2C(=O)N(C(C)C)C2CCOCC2)C3)OC1 [Example 250, 2-((4-(7-(((2S,5R)-5-(Ethylsulfonamido)tetrahydro-2H-pyran-2-yl)methyl)-2,7-diazaspiro[3.5]nonan-2-yl)pyrimidin-5-yl)oxy)-5-fluoro-N-isopropyl-N-(tetrahydro-2H-pyran-4-yl)benzamide]	< 0.1
CCCS(=O)(=O)N[C@@H]1CC[C@@H](CN2CCC3(CC2)CN(c2ncncc2Oc2ccc(F)cc2C(=O)N(CC)C(C)C)C3)OC1 [Example 9, N-Ethyl-5-fluoro-N-isopropyl-2-((4-(7-(((2S,5R)-5-(propylsulfonamido)tetrahydro-2H-pyran-2-yl)methyl)-2,7-diazaspiro[3.5]nonan-2-yl)pyrimidin-5-yl)oxy)benzamide]	< 0.1
CC(C)N(CC(F)F)C(=O)c1cc(F)ccc1Oc1cncnc1N1CC2(CCN(C[C@@H]3CC[C@@H](NS(=O)(=O)N(C)C)CO3)CC2)C1 [Example 95, N-(2,2-Difluoroethyl)-2-((4-(7-(((2S,5R)-5-((N,N-dimethylsulfamoyl)amino)tetrahydro-2H-pyran-2-yl)methyl)-2,7-diazaspiro[3.5]nonan-2-yl)pyrimidin-5-yl)oxy)-5-fluoro-N-isopropylbenzamide]	< 0.1
CCN(C(=O)c1cc(F)ccc1Oc1cncnc1N1CC2(CCN(C[C@@H]3CC[C@@H](NS(=O)(=O)c4cccnc4)CO3)CC2)C1)C(C)C [Example 63, N-Ethyl-5-fluoro-N-isopropyl-2-((4-(7-(((2S,5R)-5-(pyridine-3-sulfonamido)tetrahydro-2H-pyran-2-yl)methyl)-2,7-diazaspiro[3.5]nonan-2-yl)pyrimidin-5-yl)oxy)benzamide]	< 0.1
CC(C)S(=O)(=O)N[C@@H]1CC[C@@H](CN2CCC3(CC2)CN(c2ncncc2Oc2ccc(F)cc2C(=O)N2[C@H](C)COC[C@@H]2C)C3)OC1 [Example 25, N-((3R,6S)-6-((2-(5-(2-((3S,5R)-3,5-Dimethylmorpholine-4-carbonyl)-4-fluorophenoxy)pyrimidin-4-yl)-2,7-diazaspiro[3.5]nonan-7-yl)methyl)tetrahydro-2H-pyran-3-yl)propane-2-sulfonamide]	< 0.1
